Assays:
Assay in all cases: relative viability (nuclei count vs DMSO), 5 days (fraction); higher = more cells survive
Linifanib + Trametinib = compound: Cc1ccc(F)c(NC(=O)Nc2ccc(-c3cccc4[nH]nc(N)c34)cc2)c1 [Linifanib] + CC(=O)Nc1cccc(-n2c(=O)n(C3CC3)c(=O)c3c(Nc4ccc(I)cc4F)n(C)c(=O)c(C)c32)c1 [Trametinib] (partner 0.02 µM)
Method in brief: (§1)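 Lung cancer cell lines in 1536-well plates were dosed by pin tool the day after seeding, either with one drug alone or with a fixed anchor-drug dose plus five library-drug doses (not always all listed) in √10 steps. After 5 days, cells were fixed and their nuclei stained in one step (final 0.05% Triton X-100, 1% formaldehyde, 1 ug/ml Hoechst), then counted on 4× images. Relative viability is the nuclei count in treated wells divided by that in vehicle wells. Values are medians of duplicate plates.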

Linifanib + Vorinostat = compound: Cc1ccc(F)c(NC(=O)Nc2ccc(-c3cccc4[nH]nc(N)c34)cc2)c1 [Linifanib] + O=C(CCCCCCC(=O)Nc1ccccc1)NO [Vorinostat] (partner 1 µM)
Method in brief: as §1

Linifanib + Dasatinib = compound: Cc1ccc(F)c(NC(=O)Nc2ccc(-c3cccc4[nH]nc(N)c34)cc2)c1 [Linifanib] + Cc1nc(Nc2ncc(C(=O)Nc3c(C)cccc3Cl)s2)cc(N2CCN(CCO)CC2)n1 [Dasatinib] (partner 0.075 µM)
Method in brief: as §1

Linifanib + OSI-027 = compound: Cc1ccc(F)c(NC(=O)Nc2ccc(-c3cccc4[nH]nc(N)c34)cc2)c1 [Linifanib] + COc1cccc2cc(-c3nc([C@H]4CC[C@H](C(=O)O)CC4)n4ncnc(N)c34)[nH]c12 [OSI-027] (partner 0.5 µM)
Method in brief: as §1

Linifanib + Decitabine = compound: Cc1ccc(F)c(NC(=O)Nc2ccc(-c3cccc4[nH]nc(N)c34)cc2)c1 [Linifanib] + Nc1ncn([C@H]2C[C@H](O)[C@@H](CO)O2)c(=O)n1 [Decitabine] (partner 2 µM)
Method in brief: as §1

Linifanib + Lapatinib = compound: Cc1ccc(F)c(NC(=O)Nc2ccc(-c3cccc4[nH]nc(N)c34)cc2)c1 [Linifanib] + CS(=O)(=O)CCNCc1ccc(-c2ccc3ncnc(Nc4ccc(OCc5cccc(F)c5)c(Cl)c4)c3c2)o1 [Lapatinib] (partner 2 µM)
Method in brief: as §1

Cell Line	relative viability (Linifanib + Trametinib; first compound 0.03162 µM)	relative viability (Linifanib + Trametinib; first compound 0.1 µM)	relative viability (Linifanib + Trametinib; first compound 0.3162 µM)	relative viability (Linifanib + Vorinostat; first compound 0.03162 µM)	relative viability (Linifanib + Vorinostat; first compound 0.1 µM)	relative viability (Linifanib + Vorinostat; first compound 0.3162 µM)	relative viability (Linifanib + Dasatinib; first compound 0.03162 µM)	relative viability (Linifanib + Dasatinib; first compound 0.1 µM)	relative viability (Linifanib + Dasatinib; first compound 0.3162 µM)	relative viability (Linifanib + OSI-027; first compound 0.03162 µM)	relative viability (Linifanib + OSI-027; first compound 0.1 µM)	relative viability (Linifanib + OSI-027; first compound 0.3162 µM)	relative viability (Linifanib + Decitabine; first compound 0.03162 µM)	relative viability (Linifanib + Decitabine; first compound 0.1 µM)	relative viability (Linifanib + Decitabine; first compound 0.3162 µM)	relative viability (Linifanib + Lapatinib; first compound 0.03162 µM)	relative viability (Linifanib + Lapatinib; first compound 0.1 µM)	relative viability (Linifanib + Lapatinib; first compound 0.3162 µM)
201T	0.746	0.736	0.758	1.01	0.981	1.02	0.571	0.623	0.559	0.671	0.86	0.745	0.867	0.862	0.891	1.07	1.03	1.05
A-427	0.755	0.806	0.836	0.884	0.86	0.918	0.715	0.835	0.798	0.526	0.512	0.423	0.583	0.612	0.579	1.06	1.01	0.955
ABC-1				1.19	1.31	0.906	0.546	0.555	0.589	0.506	0.433	0.381	0.961	0.942	0.95	1.15	1.13	0.93
BEN	0.929	0.946	1.1	0.622	0.558	0.667	0.318	0.34	0.316	0.28	0.295	0.311	0.772	0.818	0.696	0.6	0.767	0.713
CAL-12T	0.338	0.463	0.357	0.884	0.986	0.724	0.457	0.508	0.343	0.761	0.736	0.73				0.75	0.819	0.534
COR-L23	0.666	0.689	0.578	0.462	0.402	0.384	0.532	0.647	0.418	0.875	0.786	0.722	0.448	0.455	0.396	1.09	0.905	0.921
COR-L 105	0.444	0.451	0.45	0.86	0.809	0.796	0.416	0.361	0.322	0.698	0.874	0.602	0.602	0.73	0.585	0.388	0.381	0.333
ChaGo-K-1	0.904	0.942	0.86	0.767	0.807	0.775	0.721	0.727	0.558	0.584	0.602	0.673	0.497	0.531	0.509			
EKVX	0.381	0.411	0.392	0.731	0.774	0.75	0.662	0.662	0.547	0.756	0.707	0.712	0.314	0.359	0.35	0.209	0.24	0.222

Source: the supplement of paper PMC10307832
